Data reported in US8895571B2, “Isoindolinone and pyrrolopyridinone derivatives as Akt inhibitors” (Incyte Corporation, priority 2011, dated 2014).
pIC50: −log10 of the molar value.

Assays:
Format in all cases: biochemical
Full length Akt3 = molecular target: T1, Full length Akt3 (Homo sapiens, UniProt Q9Y243); experiment: In vitro Akt kinase enzymatic assay (HTRF), Akt3; details: 0.6 nM Akt3, substrate solution with 5 mM ATP, 25° C. 1 hr
T1 construct: Full length Akt1 (cat #P2999), Akt2 (cat #PV3184), Akt3 (cat #PV3185); purchased PerkinElmer PV3185
T1 sequence (Q9Y243 whole entry): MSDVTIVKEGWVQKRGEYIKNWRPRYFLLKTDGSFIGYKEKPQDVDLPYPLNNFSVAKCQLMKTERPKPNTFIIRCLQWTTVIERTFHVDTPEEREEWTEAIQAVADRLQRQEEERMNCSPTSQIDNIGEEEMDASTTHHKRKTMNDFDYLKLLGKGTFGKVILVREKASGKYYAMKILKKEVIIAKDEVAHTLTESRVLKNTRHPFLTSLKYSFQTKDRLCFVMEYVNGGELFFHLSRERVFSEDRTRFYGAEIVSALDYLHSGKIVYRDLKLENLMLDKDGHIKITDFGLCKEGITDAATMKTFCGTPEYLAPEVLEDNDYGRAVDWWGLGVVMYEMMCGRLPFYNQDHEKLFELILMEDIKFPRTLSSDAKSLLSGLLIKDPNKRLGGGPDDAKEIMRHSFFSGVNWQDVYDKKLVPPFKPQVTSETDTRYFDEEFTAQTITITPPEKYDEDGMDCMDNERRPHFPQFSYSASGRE
Description: (§1) Compounds herein were tested for inhibitory activity of Akt targets according to the following in vitro assay. Full length Akt1 (cat #P2999), Akt2 (cat #PV3184), Akt3 (cat #PV3185), peptide substrate, Ulight-Crosstide (cat #TRF0106-M), Ultra-Europium anti-phospho-Crosstide (cat #TRF-0202-M), and 10×LANCE detection buffer (cat #CR97-100) were purchased from PerkinElmer. In general, assay buffer conditions were chosen based on obtaining optimal enzymatic and linear activities. The assay buffer contains 50 mM HEPES, 10 mM MgCl2, 5 mM DTT, 0.005% Tween20 at pH 7.8. Compound stock (0.001 mM) was prepared in DMSO. The compound plate was prepared by 3-fold and 11-point serial dilutions. 0.5 μL of the compound in DMSO was transferred from the compound plate to the assay plate. Enzyme solution (0.4 nM of Akt1, 0.6 nM of Akt2 or 0.6 nM of Akt3) was prepared in the assay buffer. Note that the enzyme concentration given is based on the given stock concentration reported by the vendor. 0.1 μM substrate solution was prepared in the assay buffer with addition of 5 mM ATP. 10 μL of the enzyme solution was added to the assay plate and then 10 μL of substrate solution was added to the assay plate. The plate was protected from light and the reaction was incubated at 25° C. for 1 hr. The reaction was stopped by adding 10 μL of a solution containing 30 mM EDTA, and 3 nM Ultra Europium anti-phospho Crosstide in 1× detection buffer. The plate was incubated for 15-30 min at room temperature and HTRF (homogenous time resolved fluorescence) was measured on a plate reader. Percentage of inhibition was calculated for each concentration and IC50 value was generated from curve fitting. See Table 8 for data related to compounds of the examples.

Full length Akt2 = molecular target: T2, Full length Akt2 (Homo sapiens, UniProt P31751); experiment: In vitro Akt kinase enzymatic assay (HTRF), Akt2; details: 0.6 nM Akt2, substrate solution with 5 mM ATP, 25° C. 1 hr
T2 construct: Full length Akt1 (cat #P2999), Akt2 (cat #PV3184); purchased PerkinElmer PV3184
T2 sequence (P31751 whole entry): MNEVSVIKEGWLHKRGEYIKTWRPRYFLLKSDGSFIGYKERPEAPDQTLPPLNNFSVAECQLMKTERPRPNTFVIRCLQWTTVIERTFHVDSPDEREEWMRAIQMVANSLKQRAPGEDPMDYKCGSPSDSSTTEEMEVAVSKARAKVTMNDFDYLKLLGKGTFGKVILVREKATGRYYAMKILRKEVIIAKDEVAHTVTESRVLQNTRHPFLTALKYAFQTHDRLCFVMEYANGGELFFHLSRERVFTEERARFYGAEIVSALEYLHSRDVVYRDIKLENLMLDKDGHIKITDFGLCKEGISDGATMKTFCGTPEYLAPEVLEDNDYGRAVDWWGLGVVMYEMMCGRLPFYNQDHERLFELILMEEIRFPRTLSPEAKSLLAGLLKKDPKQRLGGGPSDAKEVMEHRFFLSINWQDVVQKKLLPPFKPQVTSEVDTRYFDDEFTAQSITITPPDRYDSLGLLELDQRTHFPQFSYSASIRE
Description: as §1

Full length PKA = molecular target: T3, Full length PKA (Homo sapiens, UniProt P17612); experiment: PKA in vitro enzymatic assay (HTRF); details: 0.035 nM enzyme solution, substrate solution with 5 mM ATP, 25° C. 1 hr
T3 construct: Full length PKA (cat #P2912); purchased Invitrogen P2912
Description: Full length PKA (cat #P2912), peptide substrate, fluorescein CREBtide peptide (cat #PV3508), Tb-Crebtide p-S133 Ab (cat #PV3566), and Lanthascreen TR-FRET Dilution Buffer stored (part # PV3574) were purchased from Invitrogen. In general, assay buffer conditions were chosen based on obtaining optimal and linear enzymatic activities. The assay buffer contains 50 mM HEPES, 10 mM MgCl2, 5 mM DTT, 0.005% Tween20 at pH 7.8. Compound stock (0.001 mM) was prepared in DMSO. The compound plate was prepared by 3-fold and 11-point serial dilutions. 0.5 μL of the compound in DMSO was transferred from the compound plate to the assay plate. 0.035 nM enzyme solution was prepared in the assay buffer. Note that the enzyme concentration given is based on the given stock concentration reported by the vendor. 0.1 μM substrate solution was prepared in the assay buffer with addition of 5 mM ATP. 10 μL of the enzyme solution was added to the assay plate and then 10 μL of substrate solution was added to the assay plate. The plate was protected from light and the reaction was incubated at 25° C. for 1 hr. The reaction was stopped by adding 10 μL of a solution containing 30 mM EDTA, and 1.5 nM Tb-Crebtide p-S133 Ab in 1× detection buffer. The plate was incubated for 15-30 min at room temperature and HTRF (homogenous time resolved fluorescence) was measured on a plate reader. Percentage of inhibition was calculated for each concentration and IC50 value was generated from curve fitting. See Table 8 for data related to compounds of the examples.

Full length Akt1 = molecular target: T4, Full length Akt1 (Homo sapiens, UniProt P31749); experiment: In vitro Akt kinase enzymatic assay (HTRF), Akt1; details: 0.4 nM Akt1, substrate solution with 5 mM ATP, 25° C. 1 hr
T4 construct: Full length Akt1 (cat #P2999); purchased PerkinElmer P2999
T4 sequence (P31749 whole entry): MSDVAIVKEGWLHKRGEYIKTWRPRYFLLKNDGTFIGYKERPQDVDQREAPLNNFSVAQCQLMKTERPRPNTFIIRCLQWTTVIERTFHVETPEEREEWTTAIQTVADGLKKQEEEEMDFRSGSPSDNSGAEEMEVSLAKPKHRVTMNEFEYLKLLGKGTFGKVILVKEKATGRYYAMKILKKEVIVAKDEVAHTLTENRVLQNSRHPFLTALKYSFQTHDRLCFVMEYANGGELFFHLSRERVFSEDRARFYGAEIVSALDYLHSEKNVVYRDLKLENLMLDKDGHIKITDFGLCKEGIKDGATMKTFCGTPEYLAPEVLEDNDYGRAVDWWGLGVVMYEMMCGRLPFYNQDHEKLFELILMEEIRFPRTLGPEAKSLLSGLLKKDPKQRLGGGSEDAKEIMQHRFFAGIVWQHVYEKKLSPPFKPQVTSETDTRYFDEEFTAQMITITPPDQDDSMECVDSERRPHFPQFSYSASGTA
Description: as §1

Row | pIC50 (Full length Akt3) | pIC50 (Full length Akt2) | pIC50 (Full length PKA) | pIC50 (Full length Akt1) | SMILES
1 | < 5.30 | 5.30 to 6.30 | < 5.30 | 5.30 to 6.30 | Cn1ncc(Cl)c1-c1ccc2c(c1)CN([C@H](CNC1CCOCC1)Cc1cccc(F)c1)C2=O [Example 36, 5-(4-chloro-1-methyl-1H-pyrazol-5-yl)-2-[(1S)-1-(3-fluorobenzyl)-2-(tetrahydro-2H-pyran-4-ylamino)ethyl]isoindolin-1-one]
2 | 5.30 to 6.30 | 5.30 to 6.30 | < 5.30 | > 6.30 | Cn1ncc(Cl)c1-c1ncc2c(n1)CN([C@H](CN)Cc1ccccc1)C2=O [Example 113, 6-[(1S)-2-amino-1-benzyl-ethyl]-2-(4-chloro-1-methyl-1H-pyrazol-5-yl)-6,7-dihydro-5H-pyrrolo[3,4-d]pyrimidin-5-one]
3 | < 5.30 | < 5.30 | < 5.30 | 5.30 to 6.30 | COc1cc(C[C@@H](CN)N2Cc3cc(-c4ccnn4C)ccc3C2=O)ccn1 [Example 77, 2-{(1S)-2-amino-1-[(2-methoxypyridin-4-yl)methyl]ethyl}-5-(1-methyl-1H-pyrazol-5-yl)isoindolin-1-one]
4 | 5.30 to 6.30 | 5.30 to 6.30 | < 5.30 | > 6.30 | CSCc1cnn(C)c1-c1cc2c(cn1)C(=O)N([C@H](CN)Cc1cccc(F)c1)C2 [Example 99, 2-[(1S)-2-amino-1-(3-fluorobenzyl)ethyl]-6-[4-(methylthiomethyl)-1-methyl-1H-pyrazol-5-yl]-1,2-dihydro-3H-pyrrolo[3,4-c]pyridin-3-one]
5 | > 6.30 | > 6.30 | < 5.30 | > 6.30 | CCCOCc1cnn(C)c1-c1cc2c(cn1)C(=O)N([C@H](CN)Cc1cccc(F)c1)C2 [Example 96, 2-[(1S)-2-amino-1-(3-fluorobenzyl)ethyl]-6-[4-(1-propoxymethyl)-1-methyl-1H-pyrazol-5-yl]-1,2-dihydro-3H-pyrrolo[3,4-c]pyridin-3-one]
6 | 5.30 to 6.30 | 5.30 to 6.30 | < 5.30 | > 6.30 | CN1CCC(NC[C@H](Cc2cccc(F)c2)N2Cc3cc(-c4c(Cl)cnn4C)ccc3C2=O)CC1 [Example 37, 5-(4-chloro-1-methyl-1H-pyrazol-5-yl)-2-{(1S)-1-(3-fluorobenzyl)-2-[(1-methylpiperidin-4-yl)amino]ethyl}isoindolin-1-one]
7 | < 5.30 | < 5.30 | < 5.30 | < 5.30 | COc1ccc(C(CN)N2Cc3cc(-c4c(Cl)cnn4C)ccc3C2=O)cc1 (centres unmarked) [Example 126, 2-[2-amino-1-(4-methoxyphenyl)ethyl]-5-(4-chloro-1-methyl-1H-pyrazol-5-yl)isoindolin-1-one]
8 | < 5.30 | < 5.30 | < 5.30 | 5.30 to 6.30 | COc1cc(C[C@@H](CN)N2Cc3cc(-c4c(Cl)cnn4C)ccc3C2=O)ccn1 [Example 64, 2-{(1S)-2-amino-1-[(2-methoxypyridin-4-yl)methyl]ethyl}-5-(4-chloro-1-methyl-1H-pyrazol-5-yl)isoindolin-1-one]
9 | 5.30 to 6.30 | 5.30 to 6.30 | < 5.30 | 5.30 to 6.30 | Cn1ncc(Cl)c1-c1ccc2c(c1)CN([C@H](CN)CC1CC1)C2=O [Example 137, 2-[(1S)-2-amino-1-(cyclopropylmethyl)ethyl]-5-(4-chloro-1-methyl-1H-pyrazol-5-yl)isoindolin-1-one]
10 | 5.30 to 6.30 | 5.30 to 6.30 | < 5.30 | > 6.30 | Cn1ncc(Cl)c1-c1ccc2c(c1)CN([C@H](CNC1CC1)Cc1cccc(F)c1)C2=O [Example 33, 5-(4-chloro-1-methyl-1H-pyrazol-5-yl)-2-[(1S)-2-(cyclopropylamino)-1-(3-fluorobenzyl)ethyl]isoindolin-1-one]

The remaining lines, values behind:

Row | SMILES | pIC50 (Full length Akt3) | pIC50 (Full length Akt2) | pIC50 (Full length PKA) | pIC50 (Full length Akt1)
11 | Cn1ncc(Cl)c1-c1ccc2c(c1)CN([C@H](CNC1CCC1)Cc1cccc(F)c1)C2=O [Example 34, 5-(4-chloro-1-methyl-1H-pyrazol-5-yl)-2-[(1S)-2-(cyclobutylamino)-1-(3-fluorobenzyl)ethyl]isoindolin-1-one] | 5.30 to 6.30 | 5.30 to 6.30 | < 5.30 | > 6.30
12 | Cn1cc(-c2cccc(C[C@@H](CN)N3Cc4cc(-c5ccnn5C)ccc4C3=O)c2)cn1 [Example 83, 2-{(1S)-2-amino-1-[3-(1-methyl-1H-pyrazol-4-yl)benzyl]ethyl}-5-(1-methyl-1H-pyrazol-5-yl)isoindolin-1-one] | < 5.30 | 5.30 to 6.30 | < 5.30 | 5.30 to 6.30
13 | Cn1ncc(-c2ccccc2)c1-c1ccc2c(c1)CN([C@H](CN)Cc1cccc(F)c1)C2=O [Example 14, 2-[(1S)-2-amino-1-(3-fluorobenzyl)ethyl]-5-(4-phenyl-1-methyl-1H-pyrazol-5-yl)isoindolin-1-one] | > 6.30 | 5.30 to 6.30 | < 5.30 | 5.30 to 6.30
14 | CC(C)NC[C@H](Cc1cccc(F)c1)N1Cc2cc(-c3c(Cl)cnn3C)ccc2C1=O [Example 32, 5-(4-chloro-1-methyl-1H-pyrazol-5-yl)-2-[(1S)-1-(3-fluorobenzyl)-2-(isopropylamino)ethyl]isoindolin-1-one] | 5.30 to 6.30 | 5.30 to 6.30 | < 5.30 | 5.30 to 6.30
15 | Cn1ncc(Cl)c1-c1ccc2c(c1)CN(C(CN)c1ccccc1)C2=O (stereo in doubt) [Example 114, 2-[(1R)-2-amino-1-phenylethyl]-5-(4-chloro-1-methyl-1H-pyrazol-5-yl)isoindolin-1-one] | 5.30 to 6.30 | 5.30 to 6.30 | < 5.30 | > 6.30
16 | Cn1nccc1-c1ccc2c(c1)CN([C@H](CN)CC1CC1)C2=O [Example 136, 2-[(1S)-2-amino-1-(cyclopropylmethyl)ethyl]-5-(1-methyl-1H-pyrazol-5-yl)isoindolin-1-one] | < 5.30 | 5.30 to 6.30 | < 5.30 | > 6.30
17 | Cn1ncc(-c2cncc(F)c2)c1-c1ccc2c(c1)CN([C@H](CN)Cc1cccc(F)c1)C2=O [Example 26, 2-[(1S)-2-amino-1-(3-fluorobenzyl)ethyl]-5-[4-(5-fluoropyridin-3-yl)-1-methyl-1H-pyrazol-5-yl]isoindolin-1-one] | < 5.30 | < 5.30 | < 5.30 | < 5.30
18 | CCNC[C@H](Cc1cccc(F)c1)N1Cc2cc(-c3c(Cl)cnn3C)ccc2C1=O [Example 31, 5-(4-chloro-1-methyl-1H-pyrazol-5-yl)-2-[(1S)-2-(ethylamino)-1-(3-fluorobenzyl)ethyl]isoindolin-1-one] | 5.30 to 6.30 | 5.30 to 6.30 | < 5.30 | > 6.30
19 | CN(C)CC(c1ccccc1)N1Cc2cc(-c3c(Cl)cnn3C)ccc2C1=O (centres unmarked) [Example 121, 5-(4-chloro-1-methyl-1H-pyrazol-5-yl)-2-[2-(dimethyl-amino)-1-phenylethyl]iso-indolin-1-one] | < 5.30 | < 5.30 | < 5.30 | < 5.30
20 | CC(C)OCc1cnn(C)c1-c1ccc2c(c1)CN([C@@H](CN)c1ccccc1)C2=O [Example 122, 2-[(1R)-2-amino-1-phenylethyl]-5-[4-(2-propoxymethyl)-1-methyl-1H-pyrazol-5-yl]iso-indolin-1-one] | 5.30 to 6.30 | 5.30 to 6.30 | < 5.30 | > 6.30
